In PubChem BioAssay (NCI):
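Results reflect a 48-hour exposure of cells in 96-well plates to compound at five concentrations. GI50 = concentration required for 50% inhibition of growth. The concentration for full growth arrest is given as TGI.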

Key:
Experiment in all cases: NCI tumour cell line growth inhibition, 48 h
SN12C renal = test system: SN12C renal
OVCAR-4 ovarian = test system: OVCAR-4 ovarian
K-562 leukemia = test system: K-562 leukemia
LOX IMVI melanoma = test system: LOX IMVI melanoma
RPMI-8226 leukemia = test system: RPMI-8226 leukemia
HT29 colon = test system: HT29 colon
EKVX NSCLC = test system: EKVX NSCLC
NCI-H522 lung = test system: NCI-H522 lung
MOLT-4 leukemia = test system: MOLT-4 leukemia
MDA-MB-435 = test system: MDA-MB-435

SMILES: O=C(CC(=O)C1CCOC1=O)C(=O)Nc1ccc(Cl)cc1Cl (stereo unspecified)
- TGI (SN12C renal): > 100 µM
- TGI (OVCAR-4 ovarian): > 100 µM
- TGI (K-562 leukemia): > 100 µM
- TGI (LOX IMVI melanoma): > 100 µM
- TGI (RPMI-8226 leukemia): > 100 µM
- TGI (HT29 colon): > 100 µM
- TGI (EKVX NSCLC): > 100 µM
- TGI (NCI-H522 lung): > 100 µM

SMILES: COC(=O)C(Cc1nc2ccc(Cl)cc2[nH]c1=O)/C(=N/NC(N)=O)C(=O)Nc1ccc(Cl)cc1 (stereo unspecified)
- TGI (SN12C renal): > 100 µM
- TGI (OVCAR-4 ovarian): > 100 µM
- TGI (K-562 leukemia): > 100 µM
- TGI (LOX IMVI melanoma): > 100 µM
- TGI (RPMI-8226 leukemia): > 100 µM
- TGI (HT29 colon): > 100 µM
- TGI (MOLT-4 leukemia): > 100 µM
- TGI (EKVX NSCLC): > 100 µM
- TGI (NCI-H522 lung): > 100 µM

SMILES: COCCOCC(=O)N(CCn1ccc(NC(c2ccccc2)(c2ccccc2)c2ccccc2)nc1=O)CCn1cnc2nc(N)[nH]c(=O)c21
- TGI (SN12C renal): > 100 µM
- TGI (OVCAR-4 ovarian): > 100 µM
- TGI (K-562 leukemia): > 100 µM
- TGI (LOX IMVI melanoma): > 100 µM
- TGI (RPMI-8226 leukemia): > 100 µM
- TGI (HT29 colon): > 100 µM
- TGI (MOLT-4 leukemia): > 100 µM
- TGI (EKVX NSCLC): > 100 µM

SMILES: Cn1c2c(c3ccccc31)CCN(CCCCN1CCN(c3cccc(Cl)c3)CC1)C2=O
- TGI (SN12C renal): 25.8 µM
- TGI (OVCAR-4 ovarian): 32.2 µM
- TGI (K-562 leukemia): 27.6 µM
- TGI (RPMI-8226 leukemia): 27.4 µM
- TGI (HT29 colon): 10.5 µM
- TGI (MOLT-4 leukemia): 31.6 µM
- TGI (EKVX NSCLC): 69.2 µM
- TGI (NCI-H522 lung): 25.6 µM

SMILES: CCCCCCCCCCCCN(O)C(=O)c1ccccc1
- TGI (SN12C renal): 71.4 µM
- TGI (K-562 leukemia): > 100 µM
- TGI (LOX IMVI melanoma): > 100 µM
- TGI (RPMI-8226 leukemia): > 100 µM
- TGI (HT29 colon): > 100 µM
- TGI (MOLT-4 leukemia): > 100 µM
- TGI (EKVX NSCLC): 84.2 µM
- TGI (NCI-H522 lung): > 100 µM

SMILES: O=C(Oc1ccccc1Cl)c1ccccc1Nc1ccnc(C(F)(F)F)c1
- GI50 (SN12C renal): 0.289 µM
- TGI (SN12C renal): 2.57 µM
- GI50 (K-562 leukemia): 0.0768 µM
- TGI (K-562 leukemia): 3.39 µM
- GI50 (LOX IMVI melanoma): 0.0261 µM
- TGI (LOX IMVI melanoma): 0.0864 µM
- GI50 (MDA-MB-435): 0.107 µM
- TGI (MDA-MB-435): 0.297 µM
- GI50 (RPMI-8226 leukemia): 0.106 µM
- TGI (RPMI-8226 leukemia): 0.385 µM
- GI50 (HT29 colon): 0.389 µM
- TGI (HT29 colon): > 100 µM
- GI50 (MOLT-4 leukemia): 0.258 µM
- GI50 (EKVX NSCLC): 6.85 µM
- TGI (EKVX NSCLC): 26 µM
- GI50 (NCI-H522 lung): 0.38 µM
- TGI (NCI-H522 lung): > 70.3 µM

SMILES: O=C(O)Cn1c(=O)[nH]c(=O)c2c1ncn2Cc1ccccc1
- TGI (SN12C renal): > 100 µM
- TGI (K-562 leukemia): > 100 µM
- TGI (RPMI-8226 leukemia): > 100 µM
- TGI (HT29 colon): > 100 µM
- TGI (MOLT-4 leukemia): > 100 µM
- TGI (EKVX NSCLC): > 100 µM
- TGI (NCI-H522 lung): > 100 µM

SMILES: O=[N+]([O-])c1ccc2ncccc2c1Cl
- GI50 (SN12C renal): 4.3 µM
- TGI (SN12C renal): > 100 µM
- GI50 (K-562 leukemia): 0.382 µM
- TGI (K-562 leukemia): 27.1 µM
- GI50 (LOX IMVI melanoma): 2.4 µM
- TGI (LOX IMVI melanoma): 14.5 µM
- GI50 (MDA-MB-435): 2.18 µM
- TGI (MDA-MB-435): 9.07 µM
- GI50 (RPMI-8226 leukemia): 0.435 µM
- TGI (RPMI-8226 leukemia): 6.57 µM
- GI50 (HT29 colon): 3.45 µM
- TGI (HT29 colon): 9.29 µM
- GI50 (MOLT-4 leukemia): 3.07 µM
- TGI (MOLT-4 leukemia): 12.2 µM
- GI50 (EKVX NSCLC): 12.3 µM
- TGI (EKVX NSCLC): 29.2 µM
- GI50 (NCI-H522 lung): 2.74 µM
- TGI (NCI-H522 lung): 6.59 µM

SMILES: Cc1ccc2[nH]c3c(ncc4[nH]c5ccccc5c43)c2c1
- TGI (SN12C renal): 30.2 µM
- TGI (OVCAR-4 ovarian): 37.9 µM
- TGI (K-562 leukemia): 30.2 µM
- TGI (LOX IMVI melanoma): 31.6 µM
- TGI (RPMI-8226 leukemia): 44.3 µM
- TGI (HT29 colon): 24 µM
- TGI (MOLT-4 leukemia): 35.2 µM
- TGI (EKVX NSCLC): 29.3 µM
- TGI (NCI-H522 lung): 39.6 µM

SMILES: CN(C)c1n/c(=N/c2ncn[nH]2)ss1
- TGI (SN12C renal): > 100 µM
- TGI (OVCAR-4 ovarian): > 100 µM
- TGI (K-562 leukemia): > 100 µM
- TGI (LOX IMVI melanoma): > 100 µM
- TGI (RPMI-8226 leukemia): > 100 µM
- TGI (HT29 colon): > 100 µM
- TGI (MOLT-4 leukemia): > 100 µM
- TGI (EKVX NSCLC): > 100 µM
- TGI (NCI-H522 lung): > 100 µM
